Experimental data as given in PMC9516332 (Frontiers in Oncology, 2022).
Read-outs that look alike come from different tables or passages of the source.

Columns and labels:
[1] = target: panel of 255 wild-type kinases (Homo sapiens, UniProt Q9H1R3); conditions: cited from earlier work
[2] = target: panel of 255 wild-type kinases (Homo sapiens, UniProt Q15349); conditions: cited from earlier work
[3] = target: panel of 255 wild-type kinases (Homo sapiens, UniProt Q9Y6M4); conditions: cited from earlier work
[4] = target: panel of 255 wild-type kinases (Homo sapiens, UniProt Q9P0L2); conditions: cited from earlier work
[5] = target: T1, panel of 255 wild-type kinases (Homo sapiens, UniProt Q9BZL6); conditions: cited from earlier work
T1 sequence (Q9BZL6 1-878): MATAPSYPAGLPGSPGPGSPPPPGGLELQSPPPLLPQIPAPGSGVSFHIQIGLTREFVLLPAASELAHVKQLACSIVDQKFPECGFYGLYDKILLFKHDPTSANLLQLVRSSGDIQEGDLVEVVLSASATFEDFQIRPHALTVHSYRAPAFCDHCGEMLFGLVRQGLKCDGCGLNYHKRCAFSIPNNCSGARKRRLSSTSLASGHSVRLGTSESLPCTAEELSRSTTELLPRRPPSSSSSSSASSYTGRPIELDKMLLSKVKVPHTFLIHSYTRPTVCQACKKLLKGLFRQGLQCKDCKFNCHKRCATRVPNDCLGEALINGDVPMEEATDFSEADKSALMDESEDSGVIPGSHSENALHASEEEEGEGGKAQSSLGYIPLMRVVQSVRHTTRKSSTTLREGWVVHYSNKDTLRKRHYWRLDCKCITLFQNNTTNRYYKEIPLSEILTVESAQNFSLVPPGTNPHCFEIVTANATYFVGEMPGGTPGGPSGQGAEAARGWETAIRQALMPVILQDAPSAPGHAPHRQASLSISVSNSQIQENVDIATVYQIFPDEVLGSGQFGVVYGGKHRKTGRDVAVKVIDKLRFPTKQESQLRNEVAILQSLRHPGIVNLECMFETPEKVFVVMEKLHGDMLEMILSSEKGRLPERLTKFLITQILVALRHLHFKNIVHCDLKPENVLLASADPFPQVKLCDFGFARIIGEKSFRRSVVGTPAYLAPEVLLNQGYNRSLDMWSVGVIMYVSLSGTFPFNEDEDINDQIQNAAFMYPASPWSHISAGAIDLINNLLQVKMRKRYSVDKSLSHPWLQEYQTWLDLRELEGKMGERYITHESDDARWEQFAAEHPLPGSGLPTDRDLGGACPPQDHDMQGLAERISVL

[6] = target: panel of 255 wild-type kinases (Homo sapiens, UniProt Q13131); conditions: cited from earlier work
[7] = target: panel of 255 wild-type kinases (Homo sapiens, UniProt Q9UK32); conditions: cited from earlier work
[8] = target: panel of 255 wild-type kinases (Homo sapiens, UniProt P19525); conditions: cited from earlier work
[9] = target: panel of 255 wild-type kinases (Homo sapiens, UniProt P68400); conditions: cited from earlier work
FGFR-altered cell lines = assay: Cell viability assay, FGFR-altered versus FGFR wild-type cell lines; format: cell-based; conditions: for higher potency in FGFR-altered compared to FGFR wild-type cell lines: on average, MANOVA; for IC50: read-out: average IC50 in the eight FGFR-altered cell lines
EGFR-mutant cell lines = assay: Cell viability assay, EGFR-mutant versus EGFR wild-type cell lines; format: cell-based
[10] = kinase skMLCK, 1 µmol/L single concentration, ref DOI: 10.1371/journal.pone.0092146
[11] = kinase RSK3, 1 µmol/L single concentration, ref DOI: 10.1371/journal.pone.0092146
[12] = kinase CK1γ3, 1 µmol/L single concentration, ref DOI: 10.1371/journal.pone.0092146
[13] = MARK1, 1 µmol/L single concentration, ref DOI: 10.1371/journal.pone.0092146
[14] = kinase PKD2, 1 µmol/L single concentration, ref DOI: 10.1371/journal.pone.0092146
[15] = AMPKα1/β1/γ1 kinase assay, 1 µmol/L single concentration, ref DOI: 10.1371/journal.pone.0092146
[16] = kinase RSK4, 1 µmol/L single concentration, ref DOI: 10.1371/journal.pone.0092146
[17] = kinase PKR, 1 µmol/L single concentration, ref DOI: 10.1371/journal.pone.0092146
[18] = kinase CK2α1/β, 1 µmol/L single concentration, ref DOI: 10.1371/journal.pone.0092146
[19] = kinase skMLCK, 1 µmol/L single concentration, ref DOI: 10.1158/1535-7163.MCT-18-0877
[20] = kinase CK1γ3, 1 µmol/L single concentration, ref DOI: 10.1158/1535-7163.MCT-18-0877
[21] = MARK1, 1 µmol/L single concentration, ref DOI: 10.1158/1535-7163.MCT-18-0877
[22] = kinase PKD2, 1 µmol/L single concentration, ref DOI: 10.1158/1535-7163.MCT-18-0877
[23] = AMPKα1/β1/γ1 kinase assay, 1 µmol/L single concentration, ref DOI: 10.1158/1535-7163.MCT-18-0877
[24] = kinase RSK4, 1 µmol/L single concentration, ref DOI: 10.1158/1535-7163.MCT-18-0877
[25] = kinase PKR, 1 µmol/L single concentration, ref DOI: 10.1158/1535-7163.MCT-18-0877
[26] = kinase CK2α1/β, 1 µmol/L single concentration, ref DOI: 10.1158/1535-7163.MCT-18-0877
[27] = kinase RSK3, 1 µmol/L single concentration, ref DOI: 10.1158/1535-7163.MCT-18-0877

Compound	%-inhibition, MARK1 [4, 13]	%-inhibition at 1 µmol/L, RSK4 [7, 16]	%-inhibition at 1 µmol/L, skMLCK [1, 19]	%-inhibition at 1 µmol/L, CK1γ3 [3, 20]	%-inhibition, MARK1 [4, 21]	%-inhibition at 1 µmol/L, PKD2 [5, 22]	%-inhibition AMPKα1/β1/γ1 [6, 23]	%-inhibition at 1 µmol/L, RSK4 [7, 24]	%-inhibition at 1 µmol/L, PKR [8, 25]	%-inhibition at 1 µmol/L, CK2α1/β [9, 26]	%-inhibition at 1 µmol/L, RSK3 [2, 27]	also measured
CCCS(=O)(=O)Nc1ccc(F)c(C(=O)c2c[nH]c3ncc(-c4ccc(Cl)cc4)cc23)c1F [vemurafenib]	-9%	-3%										%-inhibition at 1 µmol/L, skMLCK [1, 10]: 53%; %-inhibition at 1 µmol/L, RSK3 [2, 11]: -0.497%; %-inhibition at 1 µmol/L, CK1γ3 [3, 12]: 2.14%; %-inhibition at 1 µmol/L, PKD2 [5, 14]: -13%; %-inhibition AMPKα1/β1/γ1 [6, 15]: -1.59%; %-inhibition at 1 µmol/L, PKR [8, 17]: -0.765%; %-inhibition at 1 µmol/L, CK2α1/β [9, 18]: -5.39%
CC(=O)Nc1cccc(-n2c(=O)n(C3CC3)c(=O)c3c(Nc4ccc(I)cc4F)n(C)c(=O)c(C)c32)c1 [trametinib]	-17%	0.208%										%-inhibition at 1 µmol/L, skMLCK [1, 10]: -3.34%; %-inhibition at 1 µmol/L, RSK3 [2, 11]: -5%; %-inhibition at 1 µmol/L, PKD2 [5, 14]: -3.28%; %-inhibition AMPKα1/β1/γ1 [6, 15]: -12%; %-inhibition at 1 µmol/L, PKR [8, 17]: 1.13%; %-inhibition at 1 µmol/L, CK2α1/β [9, 18]: -3.4%
CCc1cc2c(cc1N1CCC(N3CCOCC3)CC1)C(C)(C)c1[nH]c3cc(C#N)ccc3c1C2=O [alectinib]			-11%	0.159%	8%	-1.05%	5%	19%	5.33%	-3.18%		
CCN1C(=O)N(c2c(F)c(OC)cc(OC)c2F)Cc2cnc3[nH]c(CN4CCOCC4)cc3c21 [pemigatinib]												higher potency in FGFR-altered compared to FGFR wild-type cell lines (FGFR-altered cell lines): over 500 fold; IC50 (FGFR-altered cell lines): 4.3 nM
CC(C)(C)c1nc(-c2cccc(NS(=O)(=O)c3c(F)cccc3F)c2F)c(-c2ccnc(N)n2)s1 [dabrafenib]	-15%	2.2%										%-inhibition at 1 µmol/L, skMLCK [1, 10]: 0.52%; %-inhibition at 1 µmol/L, PKD2 [5, 14]: 82%
CCN1CCN(c2ccc(Nc3cc(N(C)C(=O)Nc4c(Cl)c(OC)cc(OC)c4Cl)ncn3)cc2)CC1 [infigratinib]												potency in FGFR-altered cell lines compared to erdafitinib and pemigatinib (FGFR-altered cell lines; average IC50): more than three-fold lower potency; IC50 (FGFR-altered cell lines; geometric average): 20 nM; higher potency in FGFR-altered compared to FGFR wild-type cell lines (FGFR-altered cell lines): 130 fold
O=C(c1ccc(F)c(F)c1Nc1ccc(I)cc1F)N1CC(O)([C@@H]2CCCCN2)C1 [cobimetinib]			-10%	6%	-5%	-11%	-0.873%	5.52%	0.867%	-9%	8%	
C=CC(=O)Nc1cc(Nc2nccc(-c3cn(C)c4ccccc34)n2)c(OC)cc1N(C)CCN(C)C [osimertinib]			-4%	13%	19%	16%	-5%	38%	6%	12%	53%	lower IC50 (higher potency) in EGFR-mutant compared to EGFR wild-type cell lines (EGFR-mutant cell lines): 33 fold
Cc1cc(Nc2ncc(Cl)c(Nc3ccccc3S(=O)(=O)C(C)C)n2)c(OC(C)C)cc1C1CCNCC1 [ceritinib]			-9%	11%	8.55%	25%	21%	83%	-1%	-8%	90%	
COc1cc2ncnc(Nc3ccc(F)c(Cl)c3)c2cc1NC(=O)/C=C/CN1CCCCC1 [dacomitinib]												lower IC50 (higher potency) in EGFR-mutant compared to EGFR wild-type cell lines (EGFR-mutant cell lines; on average, MANOVA): about 110 fold
CO[C@@H]1[C@H](N(C)C(=O)c2ccccc2)C[C@H]2O[C@]1(C)n1c3ccccc3c3c4c(c5c6ccccc6n2c5c31)C(=O)NC4 [midostaurin]			0.93%	-1.25%			86%		32%	-5.6%	98%	
COc1cc(N2CCC(N3CCN(C)CC3)CC2)ccc1Nc1ncc(Cl)c(Nc2ccccc2P(C)(C)=O)n1 [brigatinib]												%-inhibition at 1 µmol/L, skMLCK [1]: -6%; %-inhibition at 1 µmol/L, RSK3 [2]: 100%; %-inhibition at 1 µmol/L, CK1γ3 [3]: 0.829%; %-inhibition, MARK1 [4]: 96%; %-inhibition at 1 µmol/L, PKD2 [5]: 86%; %-inhibition AMPKα1/β1/γ1 [6]: 80%; %-inhibition at 1 µmol/L, RSK4 [7]: 98%; %-inhibition at 1 µmol/L, PKR [8]: 14%; %-inhibition at 1 µmol/L, CK2α1/β [9]: 8.51%
C[C@@H](Oc1cc(-c2cnn(C3CCNCC3)c2)cnc1N)c1c(Cl)ccc(F)c1Cl [crizotinib]	27%	-1.58%										%-inhibition at 1 µmol/L, RSK3 [2, 11]: 3.34%; %-inhibition at 1 µmol/L, CK1γ3 [3, 12]: 4%; %-inhibition AMPKα1/β1/γ1 [6, 15]: 16%; %-inhibition at 1 µmol/L, PKR [8, 17]: 6%; %-inhibition at 1 µmol/L, CK2α1/β [9, 18]: -6.39%
